Measurements as given in patent US20230399341A1, “7-PHENYL SUBSTITUTED 2-AMINOQUINAZOLINE INHIBITORS OF HPK1” (MERCK SHARP & DOHME LLC, priority 2020, published 2023).
pIC50: −log10 of the molar value.

Target: T1, Human HPK1, catalytic domain (Homo sapiens, UniProt Q92918)
T1 sequence (Q92918 1-346): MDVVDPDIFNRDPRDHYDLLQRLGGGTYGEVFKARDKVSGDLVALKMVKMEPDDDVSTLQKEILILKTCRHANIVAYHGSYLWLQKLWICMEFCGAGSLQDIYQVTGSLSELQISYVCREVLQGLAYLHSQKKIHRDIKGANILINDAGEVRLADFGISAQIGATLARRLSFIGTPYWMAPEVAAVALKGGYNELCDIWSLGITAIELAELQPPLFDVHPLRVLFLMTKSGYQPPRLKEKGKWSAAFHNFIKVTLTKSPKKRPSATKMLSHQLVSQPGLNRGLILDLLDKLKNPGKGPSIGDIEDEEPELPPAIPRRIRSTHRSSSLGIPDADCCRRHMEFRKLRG
Test: HPK1-SLP76 TR-FRET Assay
Format: biochemical
Conditions: 75 pM HPK1, ATP 10 uM, SLP76 10 nM, 30 min pre-incubation, 60 min reaction

SMILES	pIC50
Cc1c(-c2c(F)c(N)c3cnc(Nc4cc5c(cc4F)CCN(C)C5)nc3c2Cl)cnc2c1NCCO2 [Compound 2-185, (+ and −)-8-chloro-6-fluoro-N~2~-(6-fluoro-2-methyl-1,2,3,4-tetrahydroisoquinolin-7-yl)-7-(8-methyl-2,3-dihydro-1H-pyrido[2,3-b][1,4]oxazin-7-yl)quinazoline-2,5-diamine]	10.52
CNC(=O)C(C)(C)c1ccc(Nc2ncc3c(N)c(F)c(-c4cnc5c(c4C)NCCO5)cc3n2)cc1 [Compound 2-187, 2-(4-{[5-amino-6-fluoro-7-(8-methyl-2,3-dihydro-1H-pyrido[2,3-b][1,4]oxazin-7-yl)quinazolin-2-yl]amino}phenyl)-N,2-dimethylpropanamide]	10.09
COc1cc2c(cc1Nc1ncc3ccc(N4C(=O)OC[C@H]4C(C)C)cc3n1)CN(C)CC2 [Compound 3-10, (4R)-3-{2-[(6-methoxy-2-meth-yl-1,2,3,4-tetrahydroisoquinolin-7-yl)amino]quinazolin-7-yl}-4-(propan-2-yl)-1,3-oxazolidin-2-one]	6.97
COc1cc2c(cc1Nc1ncc3c(N)cc(N4C(=O)OC[C@@H]4C)cc3n1)CN(C)CC2 [Compound 3-17, (S)-3-{5-amino-2-[(6-methoxy-2-methyl-1,2,3,4-tetrahydroiso-quinolin-7-yl)amino]quinazolin-7-yl}-4-methyl-1,3-oxazolidin-2-one]	10.12
COc1cc2c(cc1Nc1ncc3ccc(Nc4ccc5c(c4)C(=O)NCC5)cc3n1)CN(C)CC2 [Compound 3-21, 7-({2-[(6-methoxy-2-methyl-1,2,3,4-tetrahydroisoquinolin-7-yl)amino]quinazolin-7-yl}-amino)-3,4-dihydroisoquinolin-1(2H)-one]	7.52
COc1cc2c(cc1Nc1ncc3ccc(Nc4ccc5c(c4)C(=O)N(C)C5)cc3n1)CN(C)CC2 [Compound 3-23, 6-({2-[(6-methoxy-2-methyl-1,2,3,4-tetrahydroisoquinolin-7-yl)amino]quinazolin-7-yl}-amino)-2-methyl-2,3-dihydro-1H-isoindol-1-one]	7.33
COc1cc2c(cc1Nc1ncc3ccc(Nc4cc(S(C)(=O)=O)ccc4C)cc3n1)CN(C)CC2 [Compound 3-24, N~2~-(6-methoxy-2-methyl-1,2,3,4-tetrahydroisoquinolin-7-yl)-N~7~-[2-methyl-5-(meth-ylsulfonyl)phenyl]quinazoline-2,7-diamine]	8.59
COc1cc2c(cc1Nc1ncc3ccc(Nc4cccc(C#N)n4)cc3n1)CN(C)CC2 [Compound 3-27, 6-({2-[(6-methoxy-2-methyl-1,2,3,4-tetrahydroisoquinolin-7-yl)amino]quinazolin-7-yl}-amino)-pyridine-2-carbonitrile]	7.65
COc1cc2c(cc1Nc1ncc3ccc(Nc4cccc(CO)n4)cc3n1)CN(C)CC2 [Compound 3-29, [6-({2-[(6-methoxy-2-methyl-1,2,3,4-tetrahydroisoquinolin-7-yl)amino]quinazolin-7-yl}-amino)pyridin-2-yl]methanol]	7.69
COc1cc2c(cc1Nc1ncc3ccc(Nc4cccc(C(=O)N(C)C)c4)cc3n1)CN(C)CC2 [Compound 3-34, 3-({2-[(6-methoxy-2-methyl-1,2,3,4-tetrahydroisoquinolin-7-yl)amino]quinazolin-7-yl}-amino)-N,N-dimethylbenzamide]	7.09
COc1cc2c(cc1Nc1ncc3ccc(Nc4nccc(CO)n4)cc3n1)CN(C)CC2 [Compound 3-35, [2-({2-[(6-methoxy-2-methyl-1,2,3,4-tetrahydroisoquinolin-7-yl)amino]quinazolin-7-yl}-amino)pyrimidin-4-yl]methanol]	8.78
COc1cc2c(cc1Nc1ncc3ccc(Nc4cc(S(C)(=O)=O)ccc4F)cc3n1)CN(C)CC2 [Compound 3-36, N~7~-[2-fluoro-5-(methyl-sulfonyl)phenyl]-N~2~-(6-methoxy-2-methyl-1,2,3,4-tetra-hydroisoquinolin-7-yl)quinaz-oline-2,7-diamine]	8.38
COc1cc2c(cc1Nc1ncc3ccc(NC4CCN(C(C)=O)CC4)cc3n1)CN(C)CC2 [Compound 3-38, 1-[4-({2-[(6-methoxy-2-methyl-1,2,3,4-tetrahydroisoquinolin-7-yl)amino]quinazolin-7-yl}-amino)piperidin-1-yl]ethan-1-one]	6.43
COc1cc2c(cc1Nc1ncc3ccc(Nc4cc(CO)ccn4)cc3n1)CN(C)CC2 [Compound 3-40, [2-({2-[(6-methoxy-2-methyl-1,2,3,4-tetrahydroisoquinolin-7-yl)amino]quinazolin-7-yl}-amino)pyridin-4-yl]methanol]	9.05
COc1cc2c(cc1Nc1ncc3ccc(Nc4cc(C(N)=O)ccn4)cc3n1)CN(C)CC2 [Compound 3-41, 2-({2-[(6-methoxy-2-methyl-1,2,3,4-tetrahydroisoquinolin-7-yl)amino]quinazolin-7-yl}-amino)pyridine-4-carboxamide]	8.00

More lines, now with the values ahead:

pIC50	SMILES
9.87	CNC(=O)C(F)(F)c1ccc(Nc2ncc3c(N)c(F)c(-c4cnc5c(c4C)NCCO5)cc3n2)cc1 [Compound 2-186, 2-(4-{[5-amino-6-fluoro-7-(8-methyl-2,3-dihydro-1H-pyrido[2,3-b][1,4]oxazin-7-yl)quinazolin-2-yl]amino}phenyl)-2,2-difluoro-N-methylacetamide]
10.09	CNC(=O)C1CCc2cc(Nc3ncc4c(N)c(F)c(-c5cnc6c(c5C)NCCO6)cc4n3)ccc21 (centres unmarked) [Compound 2-188, 5-{[5-amino-6-fluoro-7-(8-methyl-2,3-dihydro-1H-pyrido[2,3-b][1,4]oxazin-7-yl)quinazolin-2-yl]amino}-N-methyl-2,3-dihydro-1H-indene-1-carboxamide]
6.62	COc1cc2c(cc1Nc1ncc3ccc(N4CCCC4=O)cc3n1)CN(C)CC2 [Compound 3-1, 1-{2-[(6-methoxy-2-methyl-1,2,3,4-tetrahydroisoquinolin-7-yl)amino]quinazolin-7-yl}-pyrrolidin-2-one]
8.75	COc1cc2c(cc1Nc1ncc3ccc(N4C(=O)OC[C@@H]4C)cc3n1)CN(C)CC2 [Compound 3-2, (S)-3-{2-[(6-methoxy-2-methyl-1,2,3,4-tetrahydroisoquinolin-7-yl)amino]quinazolin-7-yl}-4-methyl-1,3-oxazolidin-2-one]
6.69	COc1cc2c(cc1Nc1ncc3ccc(N4CC5(CCNCC5)OC4=O)cc3n1)CN(C)CC2 [Compound 3-5, 3-{2-[(6-methoxy-2-methyl-1,2,3,4-tetrahydroisoquinolin-7-yl)amino]quinazolin-7-yl}-1-oxa-3,8-diazaspiro[4.5]decan-2-one]
7.34	COc1cc2c(cc1Nc1ncc3ccc(N4C(=O)OCC4(C)C)cc3n1)CN(C)CC2 [Compound 3-6, 3-{2-[(6-methoxy-2-methyl-1,2,3,4-tetrahydroisoquinolin-7-yl)amino]quinazolin-7-yl}-4,4-dimethyl-1,3-oxazolidin-2-one]
6.69	COc1cc2c(cc1Nc1ncc3ccc(NCC4=NS(=O)(=O)c5cc(C)ccc5N4)cc3n1)CN(C)CC2 [Compound 3-18, 3-[({2-[(6-methoxy-2-methyl-1,2,3,4-tetrahydroisoquinolin-7-yl)amino]quinazolin-7-yl}-amino)methyl]-7-methyl-1lambda~6~,2,4-benzothia-diazine-1,1(4H)-dione]
6.27	COc1cc2c(cc1Nc1ncc3ccc(N[C@H]4CCN(C(=O)C5CC5)C4)cc3n1)CN(C)CC2 [Compound 3-22, cyclopropyl[(3S)-3-({2-[(6-meth-oxy-2-methyl-1,2,3,4-tetrahydro-isoquinolin-7-yl)amino]quinaz-olin-7-yl}amino)pyrrolidin-1-yl]-methanone]
7.33	COc1cc2c(cc1Nc1ncc3ccc(NCc4ccc5c(c4)S(=O)(=O)N=C(C)N5)cc3n1)CN(C)CC2 [Compound 3-25, 7-[({2-[(6-methoxy-2-methyl-1,2,3,4-tetrahydroisoquinolin-7-yl)amino]quinazolin-7-yl}-amino)methyl]-3-methyl-1lambda~6~,2,4-benzothia-diazine-1,1(4H)-dione]
7.29	COc1cc2c(cc1Nc1ncc3ccc(NCc4ccc5c(c4)C(=O)NC5)cc3n1)CN(C)CC2 [Compound 3-28, 6-[({2-[(6-methoxy-2-methyl-1,2,3,4-tetrahydroisoquinolin-7-yl)amino]quinazolin-7-yl}-amino)methyl]-2,3-dihydro-1H-isoindol-1-one]
7.53	COc1cc2c(cc1Nc1ncc3ccc(Nc4cccc(CO)c4)cc3n1)CN(C)CC2 [Compound 3-31, [3-({2-[(6-methoxy-2-methyl-1,2,3,4-tetrahydroisoquinolin-7-yl)amino]quinazolin-7-yl}-amino)phenyl]methanol]
7.24	COc1cc2c(cc1Nc1ncc3ccc(Nc4ccc5c(c4)N(C(C)=O)CC5)cc3n1)CN(C)CC2 [Compound 3-32, 1-[6-({2-[(6-methoxy-2-methyl-1,2,3,4-tetrahydroisoquinolin-7-yl)amino]quinazolin-7-yl}-amino)-2,3-dihydro-1H-indol-1-yl]ethan-1-one]
7.74	COc1cc2c(cc1Nc1ncc3ccc(Nc4cccc(S(C)(=O)=O)c4)cc3n1)CN(C)CC2 [Compound 3-33, N~2~-(6-methoxy-2-methyl-1,2,3,4-tetrahydroisoquinolin-7-yl)-N~7~-[3-(methylsulfon-yl)phenyl]quinazoline-2,7-diamine]
8.50	COc1cc2c(cc1Nc1ncc3ccc(Nc4cc(S(C)(=O)=O)c(C)cc4C)cc3n1)CN(C)CC2 [Compound 3-42, N~7~-[2,4-dimethyl-5-(methyl-sulfonyl)phenyl]-N~2~-(6-methoxy-2-methyl-1,2,3,4-tetra-hydroisoquinolin-7-yl)quinaz-oline-2,7-diamine]
